Data reported in US11208412B2 (DAEGU-GYEONGBUK MEDICAL INNOVATION FOUNDATION, priority 2017, dated 2021).

Columns and labels:
Test in all cases: Kinase selectivity, DiscoverX scanMAX Kinase assay panel (% control)
Type in all cases: binding
[1] = target: T1, kinases of the scanMAX Kinase assay panel (Homo sapiens, UniProt P22694); conditions: PKAC-beta; 1 uM
T1 construct: purchased DiscoverX Co. (contract measurement) scanMAX Kinase assay panel
Outline: (§1)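 Binding-panel profiling at one concentration, 1 uM in DMSO; values are % of DMSO control after subtracting the positive-control floor. Less than 35% means activity on that kinase.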

[2] = target: T2, kinases of the scanMAX Kinase assay panel (Homo sapiens, UniProt Q06187); conditions: BTK; 1 uM
T2 construct: purchased DiscoverX Co. (contract measurement) scanMAX Kinase assay panel
T2 sequence (Q06187 whole entry): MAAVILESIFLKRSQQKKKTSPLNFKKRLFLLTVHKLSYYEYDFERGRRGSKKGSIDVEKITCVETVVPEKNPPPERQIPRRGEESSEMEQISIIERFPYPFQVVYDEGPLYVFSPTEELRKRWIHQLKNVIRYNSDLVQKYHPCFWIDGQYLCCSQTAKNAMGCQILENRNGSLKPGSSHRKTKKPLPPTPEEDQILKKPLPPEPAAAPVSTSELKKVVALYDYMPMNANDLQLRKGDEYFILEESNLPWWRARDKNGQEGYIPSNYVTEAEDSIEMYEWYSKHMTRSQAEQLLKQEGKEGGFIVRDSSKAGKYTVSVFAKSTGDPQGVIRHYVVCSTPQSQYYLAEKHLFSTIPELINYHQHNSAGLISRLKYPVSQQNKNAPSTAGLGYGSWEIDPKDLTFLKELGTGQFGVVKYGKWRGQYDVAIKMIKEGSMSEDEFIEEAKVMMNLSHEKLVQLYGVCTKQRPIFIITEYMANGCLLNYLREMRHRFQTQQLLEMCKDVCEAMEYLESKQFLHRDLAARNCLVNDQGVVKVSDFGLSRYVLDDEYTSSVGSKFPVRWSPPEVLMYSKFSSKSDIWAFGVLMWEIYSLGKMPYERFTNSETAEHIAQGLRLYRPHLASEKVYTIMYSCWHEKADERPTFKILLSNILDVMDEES
Outline: as §1

[3] = target: T3, kinases of the scanMAX Kinase assay panel (Homo sapiens, UniProt P54762); conditions: EPHB1; 1 uM
T3 construct: purchased DiscoverX Co. (contract measurement) scanMAX Kinase assay panel
T3 sequence (P54762 18-984): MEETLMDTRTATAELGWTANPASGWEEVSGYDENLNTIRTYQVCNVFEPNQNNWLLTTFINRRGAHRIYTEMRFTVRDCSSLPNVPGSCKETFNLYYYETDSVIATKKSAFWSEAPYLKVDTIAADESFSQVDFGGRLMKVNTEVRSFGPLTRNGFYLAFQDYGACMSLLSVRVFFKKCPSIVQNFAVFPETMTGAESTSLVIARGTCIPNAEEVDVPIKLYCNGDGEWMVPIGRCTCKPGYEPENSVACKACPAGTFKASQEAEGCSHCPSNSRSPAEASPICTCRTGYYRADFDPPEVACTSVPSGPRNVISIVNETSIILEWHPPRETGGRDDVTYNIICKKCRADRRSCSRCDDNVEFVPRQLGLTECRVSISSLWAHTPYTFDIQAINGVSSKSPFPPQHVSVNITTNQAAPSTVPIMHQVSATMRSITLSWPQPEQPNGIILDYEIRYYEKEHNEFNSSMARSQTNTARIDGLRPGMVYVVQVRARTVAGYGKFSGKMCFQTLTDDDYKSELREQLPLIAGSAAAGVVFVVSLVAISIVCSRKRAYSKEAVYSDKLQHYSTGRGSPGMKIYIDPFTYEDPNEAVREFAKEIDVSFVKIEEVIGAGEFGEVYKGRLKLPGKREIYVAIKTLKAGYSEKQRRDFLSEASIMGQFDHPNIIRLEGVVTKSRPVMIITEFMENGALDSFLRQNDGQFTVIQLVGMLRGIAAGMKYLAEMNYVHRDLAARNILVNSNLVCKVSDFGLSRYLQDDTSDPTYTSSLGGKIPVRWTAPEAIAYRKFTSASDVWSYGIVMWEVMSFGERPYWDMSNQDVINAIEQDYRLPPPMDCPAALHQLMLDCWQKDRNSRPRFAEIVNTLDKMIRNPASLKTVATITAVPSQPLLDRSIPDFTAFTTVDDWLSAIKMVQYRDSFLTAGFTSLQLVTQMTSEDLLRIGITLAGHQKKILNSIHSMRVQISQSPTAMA
Outline: as §1

[4] = target: T4, kinases of the scanMAX Kinase assay panel (Homo sapiens, UniProt P30530); conditions: AXL; 1 uM
T4 construct: purchased DiscoverX Co. (contract measurement) scanMAX Kinase assay panel
T4 sequence (P30530 26-894): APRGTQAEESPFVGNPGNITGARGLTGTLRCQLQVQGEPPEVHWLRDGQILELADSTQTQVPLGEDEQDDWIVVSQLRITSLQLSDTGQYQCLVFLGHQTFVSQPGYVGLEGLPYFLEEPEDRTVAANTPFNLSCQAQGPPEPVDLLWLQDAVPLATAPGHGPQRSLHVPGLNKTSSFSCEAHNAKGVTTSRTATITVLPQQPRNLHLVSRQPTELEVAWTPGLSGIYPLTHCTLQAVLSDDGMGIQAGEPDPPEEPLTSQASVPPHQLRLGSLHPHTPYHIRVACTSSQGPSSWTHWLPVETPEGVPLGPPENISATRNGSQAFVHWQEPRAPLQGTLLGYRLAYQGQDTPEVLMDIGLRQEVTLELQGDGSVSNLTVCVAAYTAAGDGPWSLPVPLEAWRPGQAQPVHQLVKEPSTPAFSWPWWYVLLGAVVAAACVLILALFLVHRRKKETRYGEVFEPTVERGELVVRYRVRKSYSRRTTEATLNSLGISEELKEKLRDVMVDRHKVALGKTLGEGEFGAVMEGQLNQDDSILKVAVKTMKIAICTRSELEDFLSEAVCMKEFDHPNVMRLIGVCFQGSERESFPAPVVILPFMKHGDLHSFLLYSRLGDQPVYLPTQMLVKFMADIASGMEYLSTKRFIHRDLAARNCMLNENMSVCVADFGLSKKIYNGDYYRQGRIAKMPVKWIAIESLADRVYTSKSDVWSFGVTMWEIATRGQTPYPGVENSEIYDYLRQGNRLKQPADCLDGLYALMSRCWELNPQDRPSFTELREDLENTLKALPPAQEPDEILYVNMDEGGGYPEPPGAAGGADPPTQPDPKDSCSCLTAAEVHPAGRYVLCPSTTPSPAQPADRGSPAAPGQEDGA
Outline: as §1

[5] = target: T5, kinases of the scanMAX Kinase assay panel (Homo sapiens, UniProt P29317); conditions: EPHA2; 1 uM
T5 construct: purchased DiscoverX Co. (contract measurement) scanMAX Kinase assay panel
T5 sequence (P29317 24-976): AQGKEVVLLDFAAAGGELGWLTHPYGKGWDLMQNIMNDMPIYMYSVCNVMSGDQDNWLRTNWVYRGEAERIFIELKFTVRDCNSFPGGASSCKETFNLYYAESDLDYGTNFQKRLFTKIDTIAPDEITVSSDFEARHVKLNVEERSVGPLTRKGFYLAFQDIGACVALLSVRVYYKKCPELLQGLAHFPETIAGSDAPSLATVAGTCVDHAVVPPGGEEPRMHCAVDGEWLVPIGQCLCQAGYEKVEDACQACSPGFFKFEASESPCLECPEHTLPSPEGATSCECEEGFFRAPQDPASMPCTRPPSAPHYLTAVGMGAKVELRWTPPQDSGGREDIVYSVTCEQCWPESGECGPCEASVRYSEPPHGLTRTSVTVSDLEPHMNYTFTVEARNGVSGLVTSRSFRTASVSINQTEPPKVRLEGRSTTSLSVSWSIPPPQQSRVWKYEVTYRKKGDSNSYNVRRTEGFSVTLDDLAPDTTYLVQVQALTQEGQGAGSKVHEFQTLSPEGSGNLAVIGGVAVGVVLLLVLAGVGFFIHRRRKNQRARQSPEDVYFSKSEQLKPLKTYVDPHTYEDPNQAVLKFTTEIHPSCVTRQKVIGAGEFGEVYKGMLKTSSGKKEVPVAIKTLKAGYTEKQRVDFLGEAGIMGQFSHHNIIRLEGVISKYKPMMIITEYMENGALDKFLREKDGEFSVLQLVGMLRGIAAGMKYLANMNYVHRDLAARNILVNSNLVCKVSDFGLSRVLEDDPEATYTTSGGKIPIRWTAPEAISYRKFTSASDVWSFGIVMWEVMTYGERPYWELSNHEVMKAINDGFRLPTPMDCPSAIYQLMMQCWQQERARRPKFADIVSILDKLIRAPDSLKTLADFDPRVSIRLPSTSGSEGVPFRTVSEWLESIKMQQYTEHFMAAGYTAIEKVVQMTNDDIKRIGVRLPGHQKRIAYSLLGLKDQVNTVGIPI
Outline: as §1

Compound `CC1(Nc2nc(Nc3cnn([C@H]4CCN(C5COC5)C[C@@H]4F)c3Cl)nc3[nH]cc(C#N)c23)CC1` [Example 52, 2-((5-chloro-1-((3S,4S)-3-fluoro-1-(oxetane-3-yl)piperidine-4-yl)-1H-pyrazole-4-yl)amino)((1-methylcyclopropyl)amino)-7H-pyrrolo[2,3-d]pyrimidine-5-carbonitrile] has a remaining binding at 1 µM [1] of 95%, a remaining binding at 1 µM [2] of 9.1% and a remaining binding at 1 µM [3] of 41%. The remaining binding at 1 µM [4] was 0% and the remaining binding at 1 µM [5] was 79%.

`CNc1nc(Nc2ccc(C(=O)N3CCOCC3)cc2OC)nc2[nH]cc(C#N)c12` [Example 1, 2-((2-methoxy-4-(morpholine-4-carbonyl)phenyl)amino)-4-(methylamino)-7H-pyrrolo[2,3-d]pyrimidine-5-carbonitrile] showed a remaining binding at 1 µM [1] of 89%, a remaining binding at 1 µM [2] of 72% and a remaining binding at 1 µM [3] of 100%. The remaining binding at 1 µM [4] was 90% and the remaining binding at 1 µM [5] was 97%.

In the case of `CCNc1nc(Nc2ccc(C(=O)N3CCC(N4CCOCC4)CC3)cc2OC)nc2[nH]cc(C(F)(F)F)c12` [Example 104, (4-((4-(ethylamino)-5-(trifluoromethyl)-7H-pyrrolo[2,3-d]pyrimidine-2-yl)amino)-3-methoxyphenyl)(4-morpholinopiperidine-1-yl)methanone], the remaining binding at 1 µM [1] is reported as 100%, the remaining binding at 1 µM [2] is reported as 100% and the remaining binding at 1 µM [3] is reported as 100%. It also gave a remaining binding at 1 µM [4] of 69% and a remaining binding at 1 µM [5] of 100%.
